Test results published in the supplement of paper PMC4862054.
Several values for one entry are separate records, joined by “and”; a condition that tells them apart may be missing. Equal entries are not always repeated.

Tests used:
Assay in all cases: normalised viability (% of control), CellTiter-Blue; higher = more viable cells (about 100 = DMSO control)
Conditions in all cases: incubation time: 72 h
[1] = test system: MDA-MB-453
Experimental: (§1)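 DSRT, CellTiter-Blue viability, 72 h incubation. Signal is normalised to DMSO and benzethonium chloride controls. Value is the normalised response at dose 8.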

[2] = test system: CAL-51
Experimental: as §1

[3] = test system: CAL-148
Experimental: as §1

[4] = test system: HDQ-P1
Experimental: as §1

[5] = test system: DU-4475
Experimental: as §1

[6] = test system: CAL-85-1
Experimental: as §1

[7] = test system: MDA-MB-453; remark: listed apart in the source
Experimental: (§2)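 DSRT, CellTiter-Blue viability, 72 h incubation. Signal is normalised to DMSO and benzethonium chloride controls. Value is the normalised response at dose 9.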

[8] = test system: CAL-51; remark: listed apart in the source
Experimental: as §2

[9] = test system: CAL-148; remark: listed apart in the source
Experimental: as §2

[10] = test system: HDQ-P1; remark: listed apart in the source
Experimental: as §2

[11] = test system: DU-4475; remark: listed apart in the source
Experimental: as §2

[12] = test system: CAL-85-1; remark: listed apart in the source
Experimental: as §2

Structure (SMILES) | normalised viability [1] | normalised viability [2] | normalised viability [3] | normalised viability [4] | normalised viability [5] | normalised viability [6] | normalised viability [7] [%] | normalised viability [8] [%] | normalised viability [9] [%] | normalised viability [10] [%] | normalised viability [11] [%] | normalised viability [12] [%]
CC(=O)c1c(C)c2cnc(Nc3ccc(N4CCNCC4)cn3)nc2n(C2CCCC2)c1=O (3000 nM) | 63.6% | 69.6% | 103% | 120% | 102% | 102% |  |  |  |  |  | 
Cn1cc(C2=Nc3cc(NC(=O)C(N)C4CCCCC4)cc4c3C2=CNNC4=O)cn1 (centres undefined) (3000 nM) | 25.2% | 80.6% | 21.9% | 51.6% | 62.3% | 50.7% |  |  |  |  |  | 
CC(=O)c1c(C)c2cnc(Nc3ccc(N4CCNCC4)cn3)nc2n(C2CCCC2)c1=O (10000 nM) |  |  |  |  |  |  | 61.1 | 50.8 | 87.6 | 93.5 | 85.9 | 78.2
COc1cc2c(cc1O)CC[C@@H]1[C@@H]2CC[C@]2(C)[C@@H](O)CC[C@@H]12 [2-methoxyestradiol] (3000 nM) | 34.4% | 42.2% | 29.6% | 56.7% | 36.1% | 41.2% |  |  |  |  |  | 
Cc1sc2c(c1C)C(c1ccc(Cl)cc1)=N[C@@H](CC(=O)OC(C)(C)C)c1nnc(C)n1-2 [(+)JQ1] (3000 nM) | 23.3% | 74.3% | 36.9% | 94.8% | 0.9% | 40.5% |  |  |  |  |  | 
Oc1ncnc2[nH]ncc12 [Allopurinol] (3000 nM) | 108% | 104% | 108% | 94.6% | 113% | 103% |  |  |  |  |  | 
O=C1CN2Cc3c(ccc(Cl)c3Cl)N=C2N1 [Anagrelide] (3000 nM) | 112% | 78.4% | 94.8% | 85.4% | 97.8% | 84.8% |  |  |  |  |  | 
Nc1ncn([C@@H]2O[C@H](CO)[C@@H](O)[C@H]2O)c(=O)n1 [Azacitidine] (3000 nM) | 101% | 109% | 89.5% | 105% | 99.7% | 93.8% |  |  |  |  |  | 
O=NN(CCCl)C(=O)NCCCl [Carmustine] (3000 nM) | 118% | 102% | 102% | 108% | 90.5% | 95.7% |  |  |  |  |  | 
CC1=C2C[C@H]3[C@@H](CC=C4C[C@@H](O)CC[C@@]43C)[C@@H]2CC[C@]12O[C@@H]1C[C@H](C)CN[C@H]1[C@H]2C [Cyclopamine] (3000 nM) | 105% | 109% | 111% | 105% | 122% | 99.7% |  |  |  |  |  | 
CC(=O)O[C@@]12CO[C@@H]1C[C@H](O)[C@@]1(C)C(=O)[C@H](O)C3=C(C)[C@@H](OC(=O)[C@H](O)[C@@H](NC(=O)OC(C)(C)C)c4ccccc4)C[C@@](O)([C@@H](OC(=O)c4ccccc4)[C@H]21)C3(C)C [Docetaxel] (300 nM) | 24.4% and 23.9% | 17.9% and 12% | 22.2% and 19.1% | 37.9% and 31.2% | 12.4% and 8.14% | 30.9% and 28.7% |  |  |  |  |  | 
C[C@]12CC[C@@H]3c4ccc(OC(=O)N(CCCl)CCCl)cc4CC[C@H]3[C@@H]1CC[C@@H]2O [Estramustine] (297 nM) | 101% | 92.5% | 97.5% | 93.6% | 118% | 86.5% |  |  |  |  |  | 
C[C@]12CC[C@@H]3c4ccc(OC(=O)N(CCCl)CCCl)cc4CC[C@H]3[C@@H]1CC[C@@H]2O [Estramustine] (990 nM) |  |  |  |  |  |  | 101 | 84 | 111 | 99.5 | 89.9 | 110
CC1(C)CNc2cc(NC(=O)c3cccnc3NCc3ccncc3)ccc21 [Motesanib] (3000 nM) | 80.8% | 104% | 86.7% | 72.7% | 101% | 86.3% |  |  |  |  |  | 
C[C@]1(O)C[C@@H](c2nc(-c3ccc4ccc(-c5ccccc5)nc4c3)c3c(N)nccn32)C1 [OSI-906] (3000 nM) | 73.9% | 88.3% | 95.6% | 50.5% | 106% | 85.5% |  |  |  |  |  | 
C[C@]1(O)C[C@@H](c2nc(-c3ccc4ccc(-c5ccccc5)nc4c3)c3c(N)nccn32)C1 [OSI-906] (10000 nM) |  |  |  |  |  |  | 65.9 | 81 | 118 | 32.4 | 92.6 | 67.4
CC[C@@H]1C(=O)OC[C@@H]1Cc1cncn1C [Pilocarpine] (12000 nM) | 117% | 107% | 105% | 127% | 88% | 92.5% |  |  |  |  |  | 
COc1cc(F)c(F)c(Nc2ccc(I)cc2F)c1NS(=O)(=O)C1(C[C@H](O)CO)CC1 [RDEA119] (3000 nM) | 54.9% | 69.9% | 75.7% | 36.1% | 1.46% | 33.4% |  |  |  |  |  | 
COc1cc(F)c(F)c(Nc2ccc(I)cc2F)c1NS(=O)(=O)C1(C[C@H](O)CO)CC1 [RDEA119] (10000 nM) |  |  |  |  |  |  | 36.1 | 60.4 | 71.5 | 51.1 | 0.93 | 29.9
CC(C)(C)c1cnc(CSc2cnc(NC(=O)C3CCNCC3)s2)o1 [SNS-032] (3000 nM) | 15.8% | 8.52% | 18.8% | 14.4% | 4.8% | 3.68% |  |  |  |  |  | 
Cn1cnc2c(F)c(Nc3ccc(Br)cc3Cl)c(C(=O)NOCCO)cc21 [Selumetinib] (3000 nM) | 108% | 86.9% | 91.9% | 76.5% | 0.16% | 59.3% |  |  |  |  |  | 
Nc1nc2[nH]cnc2c(=S)[nH]1 [Thioguanine] (3000 nM) | 110% | 103% | 78.4% | 86.4% | 115% | 75.7% |  |  |  |  |  | 
O=P(O)(O)C(O)(Cn1ccnc1)P(=O)(O)O [Zoledronic acid] (3000 nM) | 111% | 113% | 90.1% | 89.4% | 121% | 96.8% |  |  |  |  |  | 
O=P(O)(O)C(O)(Cn1ccnc1)P(=O)(O)O [Zoledronic acid] (10000 nM) |  |  |  |  |  |  | 82.3 | 103 | 96.1 | 106 | 98 | 90.4
